Measured values published in patent publication US7109182B2, “Synthetic oligomannosides, preparation and uses thereof” (Centre Hospitalier Regional Universitaire (CHRU), priority 1999, dated 2006).

Columns and labels:
[1] = tested on: C. albicans (SA-40); assay: Experimental model of vaginal candidiasis in the rat, inhibition of colonization; format: in vivo; details: for inhibition of colonization/infection (in words): administration 1 h, α control even at the maximum dose; for inhibition of colonization/infection (in words) / level of colonization (colony-forming units in vaginal secretions): 24 h and 48 h after inoculation; for level of colonization (colony-forming units in vaginal secretions): rat
Experimental: Ovarectomized female rats were maintained in pseudo-estrus by subcutaneous injection of 0.5 mg of estradiol benzoate every 2 days during the duration of the experiments. The animals were inoculated with 0.1 ml of a 10^7 yeast solution. The kinetics of the infection were monitored by determining the number of yeasts present in the vaginal secretions. 1 μl of secretion was collected with a calibrated plastic loop and spread over a dish of Sabouraud's agar plus antibiotics; the colony-forming units were counted after 48 hours of incubation at 28° C. […] 1: the β-1,2 mannotetraose (100 μg) was administered 1 hour before inoculation. 2: 1 hour after inoculation. 3: 1 h, 24 h and 48 h after inoculation. We used a model of vaginal candidiasis recognized by the international community and with which the most pertinent animal experiments to date have been performed. The results obtained in two experimental series were in perfect agreement. […] Even at the maximum dose, the α-1,2 oligomannosides administered in the same manner as control has no effect as shown in Table 3 below.

[2] = tested on: C. albicans strain 10261 (4277); assay: Gastrointestinal colonization of neonatal mice by C. albicans, prophylactic synthetic tetramannosides; format: in vivo, mouse; details: for effect on gastrointestinal colonization by C. albicans (in words) / reduction in intestinal colonization (in words): mice; for effect on gastrointestinal colonization by C. albicans (in words): administration prior to inoculation, versus control; for reduction in intestinal colonization (in words): dose of 150 μg by gavage prior to inoculation; for degree of gastrointestinal colonization, median of CFUs: young mice, CFU/dropping 7 days after the inoculation
Experimental: The mothers and their litters (10 to 15 baby mice/litter) were received on the 4th day of life (line CD-1® (Crl: CD-1® (ICR) BR, Charles River, Saint Aubin les Elbeuf, France). The animals were inoculated on the 6th day of life. There was always a separation from the mother for 3 hours prior to gavage and a one hour interval after inoculation.
Two strains of C. albicans were used, strain 4276 which expresses a small amount of β-1,2 oligomannosides at its surface and strain 4277 which expresses a large amount. Prior to each use, the strains were re-inoculated on Sabouraud-chloramphenicol (SC) agar from a culture stored at −80° C. in PBS-40% glycerol. After incubation for 24 hours at 35° C., the yeasts were washed 3 time in sterile physiological water (NaCl 0.9%, water φ) and the suspension was adjusted to 2×10^9/ml. The viability of the inoculum was verified for each experiment by sowing suitable dilutions of the yeast suspensions on SC agar in Petri dishes.
[…] The sugars were diluted in sterile water to obtain the desired concentration (see results) in a volume of 50 μl. Two independent experiments were carried out. In the first, 4 litters infected with strain 4277 were compared after administration, respectively, of water (litter 1), of 50 μg pf αMan (litter 2), 150 μg of βMan (litter 3) or 150 μg of 0αMan (litter 4). In the second experiment, four litters were infected either with strain 4276 (litters 1 and 2) or with strain 4277 (litters 3 and 4) after treatment with water (litters 1 and 3) or 50 μg of bMan (litters 2 and 4).
• Mortality: the cages were monitored once daily and the number of mice was recorded. • Gastrointestinal colonization: sequentially, beginning on day 7 after the inoculation, one dropping was collected from each mouse, ground in 100 μl of sterile water with a small piston adapted to function in 1.5-ml Eppendorf tubes and the total volume was inoculated on SC agar in a Petri dish. The number of colony forming units (CFU) was counted after 24 hours of incubation at 30° C. When the CFU density prevented counting, a score was attributed on the basis of the appearance of the culture so as to allow statistical comparisons: 2 or 1000 CFU, 3 or 10,000 CFU, 4 or 100,000 CFU. 7) Statistical Analysis
The gastrointestinal colonizations according to the infecting strain and according to the treatment preceding the inoculation were compared using a nonparametric test (Mann-Whitney or Kruskall-Wallis test, depending on the number of groups) using the program Statview 4.5 for Macintosh. The percentages of positive cultures or deaths on day 1 were compared with the Fisher exact test.

[3] = tested on: Factor 34; assay: ELISA antigenic reactivity with antigenic factor 34; format: binding, rabbit; details: FIG. 8
Experimental: Monospecific polyclonal antibodies from Iatron were prepared by immunization of rabbits with whole yeasts then adsorbed by yeasts of heterologous species. Used as a battery, they enable identification by agglutination of the principal species of Candida implicated in human pathology. Each of these “factors” reacts with specific epitopes which were identified by any entire series of immunochemical studies performed in Japan. The results of these studies were summarized in the publication by S. Suzuki (Suzuki, S. et al., 1997, Curr. Top. Med. Mycol. 8: 57–70).
According to the immunochemical studies performed on the Iatron serums, this structure should react with Factor 34 (Suzuki, S. et al., 1997, Curr. Top. Med. 8: 57–70).

[4] = tested on: antibodies of pool of serum from patients with Crohn's disease; assay: ELISA reactivity of pool of patient serums (ASCA test) with plates sensitized with synthetic antigen; format: binding; details: FIG. 9, pool of patient serums used to standardize the ASCA test
Description: It has been shown that one of the major epitopes against which was directed the ASCA response of patients with Crohn's diseases was a mannotetraose of formula Man α-1,3 Man α-1,2 Man α-1,2 Man (Sendid, B. et al., 1996, Clin. Diagn. Lab. Immunol. 3: 219–26; Young, M. et al., 1998, Glycoconj. J. 15: 815–22).

[5] = strain 10261, 150 μg by gavage prior to inoculation

Compound | inhibition of colonization/infection (in words) ([1]; rat vaginal candidiasis) | level of colonization (colony-forming units in vaginal secretions) ([1]; SA-40, 50 γ 1 h, day 0) | level of colonization (colony-forming units in vaginal secretions) ([1]; SA-40, 50 γ 1 h, day 1) | level of colonization (colony-forming units in vaginal secretions) ([1]; SA-40, 50 γ 1 h, day 2) | level of colonization (colony-forming units in vaginal secretions) ([1]; SA-40, 50 γ 1 h, day 5) | level of colonization (colony-forming units in vaginal secretions) ([1]; SA-40, 50 γ 1 h, day 7) | level of colonization (colony-forming units in vaginal secretions) ([1]; SA-40, 50 γ 1 h, day 14) | level of colonization (colony-forming units in vaginal secretions) ([1]; SA-40, 50 γ 1 h, day 21) | level of colonization (colony-forming units in vaginal secretions) ([1]; SA-40, 100 γ 1 h, day 0) | level of colonization (colony-forming units in vaginal secretions) ([1]; SA-40, 100 γ 1 h, day 1) | level of colonization (colony-forming units in vaginal secretions) ([1]; SA-40, 100 γ 1 h, day 2) | level of colonization (colony-forming units in vaginal secretions) ([1]; SA-40, 100 γ 1 h, day 5) | level of colonization (colony-forming units in vaginal secretions) ([1]; SA-40, 100 γ 1 h, day 7) | level of colonization (colony-forming units in vaginal secretions) ([1]; SA-40, 100 γ 1 h, day 14) | level of colonization (colony-forming units in vaginal secretions) ([1]; SA-40, 100 γ 1 h, day 21) | effect on gastrointestinal colonization by C. albicans (in words) [2] | reduction in intestinal colonization (in words) [2] | degree of gastrointestinal colonization, median of CFUs [2, 5] [CFU] | also measured
OC[C@H]1O[C@@H](O[C@@H]2[C@H](O[C@@H]3[C@H](O[C@@H]4C(O)O[C@H](CO)[C@@H](O)[C@@H]4O)O[C@H](CO)[C@@H](O)[C@@H]3O)O[C@H](CO)[C@@H](O)[C@@H]2O)[C@@H](O)[C@@H](O)[C@@H]1O (stereo partly drawn) [βM 4, D-Man β(1-2) D-Man β(1-2) D-Man β(1-2) D-Man] | reduced colonization by C. albicans in a very significant manner | >100 | >100 | 88 ± 6 | 62 ± 4 | 57 ± 3 | 23 ± 5 | <1 | >100 | 87 ± 6 | 83 ± 8 | 40 ± 6 | 54 ± 8 | 45 ± 14 | <1 | very protective | almost total reduction | 5 | inhibition of colonization/infection (in words) ([1]; rat vaginal candidiasis, listed as synthetic β-1,2 oligomannosides): dose-dependent relation of inhibition of colonization/infection; carrier state of C. albicans (in words) ([1]; rat vaginal candidiasis, at the end of the experiments): no longer be carriers of C. albicans; change of level of colonization (in words) ([1]; rat vaginal candidiasis, beginning on the first day of administration): decreased by close to half; level of colonization (colony-forming units in vaginal secretions) ([1]; SA-40, 150 γ 1 h, day 0): >100; level of colonization (colony-forming units in vaginal secretions) ([1]; SA-40, 150 γ 1 h, day 1): 62 ± 7; level of colonization (colony-forming units in vaginal secretions) ([1]; SA-40, 150 γ 1 h, day 2): 54 ± 0; level of colonization (colony-forming units in vaginal secretions) ([1]; SA-40, 150 γ 1 h, day 5): 27 ± 3; level of colonization (colony-forming units in vaginal secretions) ([1]; SA-40, 150 γ 1 h, day 7): 28 ± 4; level of colonization (colony-forming units in vaginal secretions) ([1]; SA-40, 150 γ 1 h, day 14): 5.6 ± 3; level of colonization (colony-forming units in vaginal secretions) ([1]; SA-40, 150 γ 1 h, day 21): <1; effect on gastrointestinal colonization by C. albicans (in words) ([2]; listed as synthetic β-1,2 tetramannosides): drastic, dose-dependent reduction in the number of yeasts found in the stools; effect on gastrointestinal colonization by C. albicans (in words) ([2]; listed as βMan): significantly decreased the degree of colonization; degree of gastrointestinal colonization, median of CFUs ([2]; strain 10261, 50 μg by gavage prior to inoculation): 48.5 CFU
8-carboxyloctyl 2-O-(2-O-(3-O-α-D-mannopyranosyl)-α-D-mannopyranosyl)-α-D-mannopyranosyl)-α-D-mannopyranoside [III] |  |  |  |  |  |  |  |  |  |  |  |  |  |  |  |  |  |  | antigenic reactivity with Factor 34 (in words) [3]: results observed correspond to the anticipated results; fixation of patient antibodies (in words) [4]: affix according to a reaction dependent on the dose of synthetic antigen
OC[C@H]1O[C@H](O[C@@H]2[C@@H](O[C@@H]3[C@@H](O[C@@H]4C(O)O[C@H](CO)[C@@H](O)[C@@H]4O)O[C@H](CO)[C@@H](O)[C@@H]3O)O[C@H](CO)[C@@H](O)[C@@H]2O)[C@@H](O)[C@@H](O)[C@@H]1O (stereo partly drawn) [αM A N, D-Man α(1-2) D-Man α(1-2) D-Man α(1-2) D-Man] | no effect | >100 | >100 | 95 ± 2 | 86 ± 4 | 69 ± 6 | 48 ± 4 | 21 ± 4 | >100 | >100 | 93 ± 3 | 83 ± 5 | 71 ± 6 | 495 | 22.4 ± 3.4 | did not modify the degree of gastrointestinal colonization | not seen | 258 | 
